In PubChem BioAssay AID1919004 (Molecular Pharmacology Branch, DTP, NCI, 2023):
Several values for one entry are separate records, joined by “and”; a condition that tells them apart may be missing. Identical values can stand only once.

System: 883617-216-R-J1-PDC complex spheroids, growth, % test/control
Assay: Anticancer human tumor 883617-216-R-J1-PDC patient-derived bladder carcinoma cell line growth inhibition [AhR]
Conditions: for viability, T/C: stronger effect = lower value
Outline: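 Complex tumor spheroids co-cultured with HUVEC and human MSC stroma; AhR antagonists tested in combination with standard-of-care and investigational agents. Top concentration at or near clinical Cmax (else 10 microM), half-log dilutions; growth expressed as percent test/control.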

[1] = curve of first compound, second compound 0.1 µM
[2] = curve of first compound, second compound 0.316 µM
[3] = curve of first compound, second compound 1 µM
[4] = curve of first compound, second compound 3.16 µM
[5] = curve of first compound, second compound 10 µM
[6] = second compound 0.1 µM, first compound 0.0316 µM
[7] = second compound 0.1 µM, first compound 0.1 µM
[8] = second compound 0.1 µM, first compound 0.316 µM
[9] = second compound 0.1 µM, first compound 1 µM
[10] = second compound 0.1 µM, first compound 3.16 µM
[11] = second compound 0.1 µM, first compound 10 µM
[12] = second compound 0.316 µM, first compound 0.0316 µM
[13] = second compound 0.316 µM, first compound 0.1 µM
[14] = second compound 0.316 µM, first compound 0.316 µM
[15] = second compound 0.316 µM, first compound 1 µM
[16] = second compound 0.316 µM, first compound 3.16 µM
[17] = second compound 0.316 µM, first compound 10 µM
[18] = second compound 1 µM, first compound 0.0316 µM
[19] = second compound 1 µM, first compound 0.1 µM
[20] = second compound 1 µM, first compound 0.316 µM
[21] = second compound 1 µM, first compound 1 µM
[22] = second compound 1 µM, first compound 3.16 µM
[23] = second compound 1 µM, first compound 10 µM
[24] = second compound 3.16 µM, first compound 0.0316 µM
[25] = second compound 3.16 µM, first compound 0.1 µM
[26] = second compound 3.16 µM, first compound 0.316 µM
[27] = second compound 3.16 µM, first compound 1 µM
[28] = second compound 3.16 µM, first compound 3.16 µM
[29] = second compound 3.16 µM, first compound 10 µM
[30] = second compound 10 µM, first compound 0.0316 µM
[31] = second compound 10 µM, first compound 0.1 µM
[32] = second compound 10 µM, first compound 0.316 µM
[33] = second compound 10 µM, first compound 1 µM
[34] = second compound 10 µM, first compound 3.16 µM
[35] = second compound 10 µM, first compound 10 µM
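Further: exposure lasted 7 days after dosing on day 3 of spheroid growth.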

SMILES: CC(C)c1c(-c2ccccc2)nc2c(C#N)c[nH]n2c1=O + Cc1cncc(-c2nc(NCCc3c[nH]c4ccccc34)c3ncn(C(C)C)c3n2)c1
- IC50 [1]: > 10000 nM
- IC50 [2]: > 10000 nM
- IC50 [3]: > 10000 nM
- IC50 [4]: > 10000 nM
- IC50 [5]: 68.1 nM
- viability, T/C [6]: 98.7%
- viability, T/C [7]: 93.8%
- viability, T/C [8]: 99.3%
- viability, T/C [9]: 99.7%
- viability, T/C [10]: 92.6%
- viability, T/C [11]: 91.7%
- viability, T/C [12]: 107%
- viability, T/C [13]: 91.8%
- viability, T/C [14]: 93%
- viability, T/C [15]: 97.6%
- viability, T/C [16]: 103%
- viability, T/C [17]: 94%
- viability, T/C [18]: 96.6%
- viability, T/C [19]: 114%
- viability, T/C [20]: 107%
- viability, T/C [21]: 104%
- viability, T/C [22]: 102%
- viability, T/C [23]: 111%
- viability, T/C [24]: 105%
- viability, T/C [25]: 109%
- viability, T/C [26]: 115%
- viability, T/C [27]: 105%
- viability, T/C [28]: 111%
- viability, T/C [29]: 121%
- viability, T/C [30]: 53.4%
- viability, T/C [31]: 48.5%
- viability, T/C [32]: 48.4%
- viability, T/C [33]: 41.7%
- viability, T/C [34]: 43.5%
- viability, T/C [35]: 55.4%

SMILES: CC1COCCN1c1cc(C2(S(C)(=N)=O)CC2)nc(-c2ccnc3[nH]ccc23)n1 (configuration not stated) + Cc1ccccc1N=Nc1ccc(NC(=O)c2ccnn2C)c(C)c1
- IC50 [1]: > 10000 nM
- IC50 [2]: > 10000 nM
- IC50 [3]: > 10000 nM
- IC50 [4]: > 10000 nM
- IC50 [5]: > 10000 nM
- viability, T/C [6]: 97.9%
- viability, T/C [7]: 97%
- viability, T/C [8]: 88%
- viability, T/C [9]: 84.9%
- viability, T/C [10]: 70.9%
- viability, T/C [11]: 54.6%
- viability, T/C [12]: 90.5%
- viability, T/C [13]: 93.6%
- viability, T/C [14]: 81.2%
- viability, T/C [15]: 89.9%
- viability, T/C [16]: 82%
- viability, T/C [17]: 55.4%
- viability, T/C [18]: 87.7%
- viability, T/C [19]: 90.9%
- viability, T/C [20]: 82.4%
- viability, T/C [21]: 84.8%
- viability, T/C [22]: 77.1%
- viability, T/C [23]: 54.8%
- viability, T/C [24]: 86.5%
- viability, T/C [25]: 77.6%
- viability, T/C [26]: 75%
- viability, T/C [27]: 75%
- viability, T/C [28]: 61.5%
- viability, T/C [29]: 58.8%
- viability, T/C [30]: 75.7%
- viability, T/C [31]: 81.5%
- viability, T/C [32]: 82%
- viability, T/C [33]: 77.3%
- viability, T/C [34]: 73.5%
- viability, T/C [35]: 57.1%

SMILES: O=C(C=Cn1cnc(-c2cc(C(F)(F)F)cc(C(F)(F)F)c2)n1)NNc1cnccn1 + CC(CO)NC(=O)c1cc(-c2ccc(Cl)cc2)nn(-c2cnn(C)c2)c1=O
- IC50 [1]: 155 nM
- IC50 [2]: 351 nM
- IC50 [3]: 187 nM
- IC50 [4]: 180 nM
- IC50 [5]: 165 nM
- viability, T/C (second compound 0.1 µM, first compound 0.00949 µM): 93.7%
- viability, T/C (second compound 0.1 µM, first compound 0.03 µM): 78.1%
- viability, T/C (second compound 0.1 µM, first compound 0.0949 µM): 56.8%
- viability, T/C (second compound 0.1 µM, first compound 0.3 µM): 40.4%
- viability, T/C (second compound 0.1 µM, first compound 0.949 µM): 34.5%
- viability, T/C (second compound 0.1 µM, first compound 3 µM): 29.7%
- viability, T/C (second compound 0.316 µM, first compound 0.00949 µM): 109%
- viability, T/C (second compound 0.316 µM, first compound 0.03 µM): 79.4%
- viability, T/C (second compound 0.316 µM, first compound 0.0949 µM): 71%
- viability, T/C (second compound 0.316 µM, first compound 0.3 µM): 50.1%
- viability, T/C (second compound 0.316 µM, first compound 0.949 µM): 37.8%
- viability, T/C (second compound 0.316 µM, first compound 3 µM): 37.2%
- viability, T/C (second compound 1 µM, first compound 0.00949 µM): 60.4%
- viability, T/C (second compound 1 µM, first compound 0.03 µM): 76.3%
- viability, T/C (second compound 1 µM, first compound 0.0949 µM): 65%
- viability, T/C (second compound 1 µM, first compound 0.3 µM): 37.2%
- viability, T/C (second compound 1 µM, first compound 0.949 µM): 46.8%
- viability, T/C (second compound 1 µM, first compound 3 µM): 34.5%
- viability, T/C (second compound 3.16 µM, first compound 0.00949 µM): 65.1%
- viability, T/C (second compound 3.16 µM, first compound 0.03 µM): 61.9%
- viability, T/C (second compound 3.16 µM, first compound 0.0949 µM): 71.2%
- viability, T/C (second compound 3.16 µM, first compound 0.3 µM): 32.4%
- viability, T/C (second compound 3.16 µM, first compound 0.949 µM): 50.3%
- viability, T/C (second compound 3.16 µM, first compound 3 µM): 29.1%
- viability, T/C (second compound 10 µM, first compound 0.00949 µM): 72.3%
- viability, T/C (second compound 10 µM, first compound 0.03 µM): 46.9%
- viability, T/C (second compound 10 µM, first compound 0.0949 µM): 75.3%
- viability, T/C (second compound 10 µM, first compound 0.3 µM): 34.1%
- viability, T/C (second compound 10 µM, first compound 0.949 µM): 37.5%
- viability, T/C (second compound 10 µM, first compound 3 µM): 24.9%

SMILES: CC[C@@]1(O)C(=O)OCc2c1cc1n(c2=O)Cc2cc3c(CN(C)C)c(O)ccc3nc2-1
- viability, T/C (compound 0.000316 µM): 92.8% and 94.7% and 101%
- viability, T/C (compound 0.001 µM): 108% and 116% and 99.4%
- viability, T/C (compound 0.00316 µM): 90.1% and 89.1% and 94.2%
- viability, T/C (compound 0.01 µM): 88.6% and 87.3% and 75.8%
- viability, T/C (compound 0.0316 µM): 71% and 95.2% and 80.3%
- viability, T/C (compound 0.1 µM): 67.6% and 80.6% and 70.9%
- IC50 (curve of compound): > 100 nM
